Here are results for 19 compounds from PubChem BioAssay AID264 (DTP/NCI, 2004).

The subject of the experiment is nude mice, LX-1 lung xenograft intrarenal, tumor weight T/C. Description: NCI In Vivo Anticancer Drug Screen. Data for tumor model Human Lung LX-1 Xenograft (intrarenal inoculation) in NU/NU Swiss (nude) mice. The settings on record: endpoint: mean tumor weight change, higher = larger tumour. The method in brief: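 Readout: T/C, i.e. treated-group tumor measurement over vehicle-control measurement. Mice bearing transplantable tumors were dosed with compound or vehicle.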
A general note: Xenograft models place foreign cells or tissue in a host animal.

Where [1] appears, read: dose: 25.0 mg/kg/injection, schedule: Q04DX003 (sc), vehicle: suspension in saline.
The mark [2] stands for this setting: dose: 50.0 mg/kg/injection, schedule: Q04DX003 (sc), vehicle: suspension in saline.
Setting [3] is: dose: 300.0 mg/kg/injection, schedule: Q04DX003 (sc), vehicle: saline.
Setting [4] is: dose: 600.0 mg/kg/injection, schedule: Q04DX003 (sc), vehicle: saline.
Where [5] appears, read: dose: 1200.0 mg/kg/injection, schedule: Q04DX003 (sc), vehicle: saline.
Where [6] appears, read: dose: 2400.0 mg/kg/injection, schedule: Q04DX003 (sc), vehicle: saline.
Where [7] appears, read: dose: 5.0 mg/kg/injection, schedule: Q04DX003 (sc), vehicle: Klucel (hydroxypropylcellulose) (HPC).
Where [8] appears, read: dose: 20.0 mg/kg/injection, schedule: Q04DX003 (sc), vehicle: Klucel (hydroxypropylcellulose) (HPC).

Each structure is given as a SMILES string. Values joined by “and” are separate entries in the source; they are usually repeats but may differ in a detail not shown here. Equal values may be shown once. Inconclusive results are not listed. Peptide text beside a SMILES is read from it. * marks the point of attachment. Trt = c1ccc(C(c2ccccc2)(c2ccccc2)*)cc1; Cbz = O=C(OCc1ccccc1)*

As for `Oc1ccc(SCc2ccc(NCc3ccccc3)cc2)cc1`, the T/C reads like this: (dose: 25.0 mg/kg/injection, schedule: Q01DX010 (sc), vehicle: saline with Tween-80) 97 % of control; (dose: 50.0 mg/kg/injection, schedule: Q01DX010 (sc), vehicle: saline with Tween-80) 44 % of control; (dose: 100.0 mg/kg/injection, schedule: Q01DX010 (sc), vehicle: saline with Tween-80) 53 % of control; (dose: 400.0 mg/kg/injection, schedule: Q01DX010 (sc), vehicle: saline with Tween-80) 190 % of control; (dose: 800.0 mg/kg/injection, schedule: Q01DX010 (sc), vehicle: saline with Tween-80) 54 % of control.
Take `CCCCCC#CC1OC12CCCCC2` (stereo unspecified): the T/C (dose: 300.0 mg/kg/injection, schedule: Q04DX003 (sc), vehicle: saline with Tween-80) is 97 % of control; the T/C (dose: 600.0 mg/kg/injection, schedule: Q04DX003 (sc), vehicle: saline with Tween-80) was 93 % of control; the T/C (dose: 1200.0 mg/kg/injection, schedule: Q04DX003 (sc), vehicle: saline with Tween-80) is 60 % of control; the T/C (dose: 2400.0 mg/kg/injection, schedule: Q04DX003 (sc), vehicle: saline with Tween-80) is 79 % of control.
For the compound `CCc1ncnc2cc(OCC3CO3)c(OC)cc12` (stereo unspecified), the T/C reads like this: under setting [1], 53 % of control; under setting [2], 64 % of control; (dose: 200.0 mg/kg/injection, schedule: Q04DX003 (sc), vehicle: suspension in saline) 24 % of control.
Take `COC(=O)C[C@](O)(CCCC(C)(C)O)C(=O)O[C@@H]1C(OC)=C[C@]23CCCN2CCc2cc4c(cc2[C@H]13)OCO4`: the T/C by setting is: (dose: 0.5 mg/kg/injection, schedule: Q01DX010 (sc), vehicle: saline) 115 % of control; (dose: 1.0 mg/kg/injection, schedule: Q01DX010 (sc), vehicle: saline) 61 % of control.
On to `CNC(=O)OCc1c(COC(=O)NC)c(-c2ccccc2)n(C)c1-c1ccccc1`, for which the T/C is, setting by setting: (dose: 50.0 mg/kg/injection, schedule: Q04DX003 (sc), vehicle: distilled water + Tween-80) 88 % of control; (dose: 100.0 mg/kg/injection, schedule: Q04DX003 (sc), vehicle: distilled water + Tween-80) 182 % of control; (dose: 200.0 mg/kg/injection, schedule: Q04DX003 (sc), vehicle: distilled water + Tween-80) 50 % of control; (dose: 800.0 mg/kg/injection, schedule: Q04DX003 (sc), vehicle: distilled water + Tween-80) 52 % of control; (dose: 1600.0 mg/kg/injection, schedule: Q04DX003 (sc), vehicle: distilled water + Tween-80) 57 % of control.
With `CC1(C)OC(=O)N(CO)C1=O`, the T/C reads like this: (dose: 25.0 mg/kg/injection, schedule: Q01DX010 (sc), vehicle: saline) 51 % of control; (dose: 100.0 mg/kg/injection, schedule: Q01DX010 (sc), vehicle: saline) 116 % of control; (dose: 200.0 mg/kg/injection, schedule: Q01DX010 (sc), vehicle: saline) 110 % of control.
On to `COC(=O)C[C@](O)(CCC(C)(C)O)C(=O)O[C@@H]1C(OC)=C[C@]23CCCN2CCc2cc4c(cc2[C@H]13)OCO4`, for which the T/C is 115 % of control (dose: 0.63 mg/kg/injection, schedule: Q04DX003 (sc), vehicle: saline); 110 % of control (dose: 1.25 mg/kg/injection, schedule: Q04DX003 (sc), vehicle: saline); 95 % of control (dose: 2.5 mg/kg/injection, schedule: Q04DX003 (sc), vehicle: saline); 102 % of control (dose: 5.0 mg/kg/injection, schedule: Q04DX003 (sc), vehicle: saline).
Consider `Cc1ccccc1CN1C2=NCCN2C(=O)C2=C1CCN(S(=O)(=O)c1ccc(Cl)c(S(N)(=O)=O)c1)C2`, for which the T/C (dose: 150.0 mg/kg/injection, schedule: Q04DX003 (sc), vehicle: saline) is 77 % of control; the T/C under setting [3] is 96 % of control; the T/C under setting [4] was 155 % of control.
As to `CSCS(=O)C[C@H](CO)NC(=O)/C=C/c1c(C)[nH]c(=O)[nH]c1=O` (stereo partly specified), the T/C (dose: 0.75 mg/kg/injection, schedule: Q04DX003 (sc), vehicle: saline) is 76 % of control; the T/C (dose: 1.5 mg/kg/injection, schedule: Q04DX003 (sc), vehicle: saline) was 70 % of control; the T/C (dose: 3.0 mg/kg/injection, schedule: Q04DX003 (sc), vehicle: saline) is 68 % of control.
On to `C=C(C)[C@@H]1CCc2c(O)c(O)c(=O)cc(C)c2C1`, for which the T/C is, setting by setting: under setting [3], 106 % of control; under setting [4], 62 % of control; under setting [5], 90 % of control; under setting [6], 85 % of control.
For the compound `O=c1ncccn1[C@@H]1O[C@H](CO)[C@H](O)C1O` (stereo partly specified), the T/C is, setting by setting: under setting [3], 100 % of control; under setting [4], 56 % of control; under setting [5], 55 % of control; under setting [6], 47 % of control.
For the compound `CC1(C)N=C(N)N=C(N)N1c1ccc(CCCCc2ccc(S(=O)(=O)F)cc2Cl)c(Cl)c1`, for the setting “dose: 12.5 mg/kg/injection, schedule: Q01DX010 (sc), vehicle: saline”, the T/C was 78 % of control.
For `COC(=O)C(CSC(c1ccccc1)(c1ccccc1)c1ccccc1)NC(=O)C(CC(N)=O)NC(=O)OCc1ccccc1` (stereo not drawn) (Cbz-Asn-Cys(Trt)-OMe; configuration not given here), the T/C (dose: 300.0 mg/kg/injection, schedule: Q04DX003 (sc), vehicle: distilled water + Tween-80) was 79 % of control; the T/C (dose: 1200.0 mg/kg/injection, schedule: Q04DX003 (sc), vehicle: distilled water + Tween-80) is 105 % of control; the T/C (dose: 2400.0 mg/kg/injection, schedule: Q04DX003 (sc), vehicle: distilled water + Tween-80) is 116 % of control.
Regarding `COC1C(C)OC(OC2CC(C)(O)Cc3cc4c(c(O)c32)C(=O)c2c(O)cc3c(c2C4=O)OC2OC3(C)C(O)C(N(C)C)C2O)C(OC)C1(C)OC` (stereo unspecified), the T/C under setting [7] is 118 % of control; the T/C under setting [8] is 60 % of control; the T/C (dose: 40.0 mg/kg/injection, schedule: Q04DX003 (sc), vehicle: Klucel (hydroxypropylcellulose) (HPC)) is 98 % of control.
In the case of `O=C(O)CC(=O)O.[NH-]CC[NH-].[Pt+2]`, the T/C is 100 % of control (dose: 12.5 mg/kg/injection, schedule: Q01DX010 (sc), vehicle: dextrose); 74 % of control (dose: 25.0 mg/kg/injection, schedule: Q01DX010 (sc), vehicle: dextrose); 74 % of control (dose: 50.0 mg/kg/injection, schedule: Q01DX010 (sc), vehicle: dextrose).
For `C[N+](C)(C)c1cc2c(nn1)Nc1ccccc1S2`, the T/C (dose: 100.0 mg/kg/injection, schedule: Q01DX010 (sc), vehicle: Klucel (hydroxypropylcellulose) (HPC)) was 89 % of control.
Turning to `NC(=O)c1ncn2c(=O)n(CCCl)nnc12`, the T/C by setting is: (dose: 12.5 mg/kg/injection, schedule: Q04DX003 (sc), vehicle: saline) 56 % of control and 64 % of control; (dose: 12.5 mg/kg/injection, schedule: Q04DX003 (sc), vehicle: suspension in saline) 80 % of control; (dose: 25.0 mg/kg/injection, schedule: Q04DX003 (sc), vehicle: saline) 23 % of control and 40 % of control; under setting [1], 49 % of control; (dose: 50.0 mg/kg/injection, schedule: Q04DX003 (sc), vehicle: saline) 3 % of control and 19 % of control; under setting [2], 18 % of control. Moreover, under “dose: 100.0 mg/kg/injection, schedule: Q04DX003 (sc), vehicle: saline”, the T/C was 7 % of control.
Regarding `N/C(=N\O)c1cn(C2OC(CO)C(O)C2O)c2ncnc(N)c12` (stereo unspecified), the T/C is 95 % of control (dose: 2.5 mg/kg/injection, schedule: Q04DX003 (sc), vehicle: Klucel (hydroxypropylcellulose) (HPC)); 99 % of control under setting [7]; 81 % of control (dose: 10.0 mg/kg/injection, schedule: Q04DX003 (sc), vehicle: Klucel (hydroxypropylcellulose) (HPC)); 44 % of control under setting [8].
In the case of `O=C1NC(O)c2ccccc2O1` (stereo unspecified), the T/C reads like this: (dose: 300.0 mg/kg/injection, schedule: Q04DX003 (sc), vehicle: suspension in saline) 102 % of control; (dose: 600.0 mg/kg/injection, schedule: Q04DX003 (sc), vehicle: suspension in saline) 79 % of control; (dose: 1200.0 mg/kg/injection, schedule: Q04DX003 (sc), vehicle: suspension in saline) 63 % of control; (dose: 2400.0 mg/kg/injection, schedule: Q04DX003 (sc), vehicle: suspension in saline) 86 % of control.
